Like-named read-outs stand apart in the source and are kept apart here.
Assays:
[1] = biological target: T1, 5-hydroxytryptamine receptor 3A, HTR3A (h) (Homo sapiens, UniProt P46098); conditions: control MDL 72222
T1 sequence (P46098 24-478): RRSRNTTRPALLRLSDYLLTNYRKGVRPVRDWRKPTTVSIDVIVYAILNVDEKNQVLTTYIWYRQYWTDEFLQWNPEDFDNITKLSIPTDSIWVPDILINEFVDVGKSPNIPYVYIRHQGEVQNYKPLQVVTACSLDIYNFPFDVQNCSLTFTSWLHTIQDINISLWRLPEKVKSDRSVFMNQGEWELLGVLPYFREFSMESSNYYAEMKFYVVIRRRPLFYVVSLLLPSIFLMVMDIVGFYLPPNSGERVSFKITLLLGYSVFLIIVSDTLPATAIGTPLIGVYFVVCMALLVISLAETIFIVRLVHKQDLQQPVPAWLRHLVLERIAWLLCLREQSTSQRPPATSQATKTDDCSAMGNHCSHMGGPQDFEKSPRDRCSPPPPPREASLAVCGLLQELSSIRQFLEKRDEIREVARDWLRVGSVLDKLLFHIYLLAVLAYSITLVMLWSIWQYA

[2] = biological target: Delta-type opioid receptor, OPRD1 (h) (Homo sapiens, UniProt P41143); conditions: ligand/control DPDPE
Chain of Delta-type opioid receptor, OPRD1 (h) (P41143 whole entry): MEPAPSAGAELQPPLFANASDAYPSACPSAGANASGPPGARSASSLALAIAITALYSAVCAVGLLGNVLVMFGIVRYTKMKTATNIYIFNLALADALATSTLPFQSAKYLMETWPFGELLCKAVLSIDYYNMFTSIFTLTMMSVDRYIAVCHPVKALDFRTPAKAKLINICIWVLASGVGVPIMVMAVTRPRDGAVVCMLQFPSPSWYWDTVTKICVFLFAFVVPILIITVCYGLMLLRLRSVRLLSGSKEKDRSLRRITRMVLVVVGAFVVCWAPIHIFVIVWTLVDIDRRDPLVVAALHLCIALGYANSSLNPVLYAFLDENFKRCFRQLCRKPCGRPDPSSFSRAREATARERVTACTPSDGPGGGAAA

[3] = biological target: Neuronal acetylcholine receptor subunit alpha-4, CHRNA4 (h) (Homo sapiens, UniProt P17787+P43681); conditions: control nicotine
Chain of Neuronal acetylcholine receptor subunit alpha-4, CHRNA4 (h) (P43681 29-627 limits assumed): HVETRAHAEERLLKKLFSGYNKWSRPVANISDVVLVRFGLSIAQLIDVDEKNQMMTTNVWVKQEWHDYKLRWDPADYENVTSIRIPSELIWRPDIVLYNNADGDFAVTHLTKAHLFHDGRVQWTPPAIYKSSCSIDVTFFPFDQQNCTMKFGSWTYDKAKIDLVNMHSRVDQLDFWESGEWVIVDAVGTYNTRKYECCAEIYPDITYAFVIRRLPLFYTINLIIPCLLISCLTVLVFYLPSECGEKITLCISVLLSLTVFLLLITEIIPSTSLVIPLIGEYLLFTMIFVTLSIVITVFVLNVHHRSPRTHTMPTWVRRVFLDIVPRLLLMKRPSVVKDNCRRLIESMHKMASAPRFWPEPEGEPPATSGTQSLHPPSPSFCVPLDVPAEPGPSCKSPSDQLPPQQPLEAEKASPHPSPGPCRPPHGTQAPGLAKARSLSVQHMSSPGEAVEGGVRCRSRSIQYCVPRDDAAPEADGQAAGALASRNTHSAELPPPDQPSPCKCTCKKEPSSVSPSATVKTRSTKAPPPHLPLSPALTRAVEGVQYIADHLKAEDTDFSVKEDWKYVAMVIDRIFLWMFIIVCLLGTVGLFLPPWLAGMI
Chain of Neuronal acetylcholine receptor subunit alpha-4, CHRNA4 (h) (P17787 26-502): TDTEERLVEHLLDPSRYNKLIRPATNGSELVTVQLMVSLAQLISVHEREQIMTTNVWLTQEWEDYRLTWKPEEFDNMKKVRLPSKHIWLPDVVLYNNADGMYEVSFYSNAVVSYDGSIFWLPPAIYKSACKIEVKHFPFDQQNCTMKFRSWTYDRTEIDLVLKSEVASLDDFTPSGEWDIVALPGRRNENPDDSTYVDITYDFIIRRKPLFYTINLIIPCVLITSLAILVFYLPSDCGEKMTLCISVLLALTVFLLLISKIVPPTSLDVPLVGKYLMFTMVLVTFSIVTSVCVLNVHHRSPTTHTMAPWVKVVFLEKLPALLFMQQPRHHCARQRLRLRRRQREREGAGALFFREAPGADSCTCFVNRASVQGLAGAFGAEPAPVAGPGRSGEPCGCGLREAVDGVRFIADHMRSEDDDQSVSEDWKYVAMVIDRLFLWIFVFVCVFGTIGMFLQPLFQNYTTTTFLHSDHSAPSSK

[4] = biological target: Histamine H1 receptor, HRH1 (h) (Homo sapiens, UniProt P35367); experiment: IPP HRH1 binding (antagonist radioligand); conditions: control pyrilamine
Chain of Histamine H1 receptor, HRH1 (h) (P35367 whole entry): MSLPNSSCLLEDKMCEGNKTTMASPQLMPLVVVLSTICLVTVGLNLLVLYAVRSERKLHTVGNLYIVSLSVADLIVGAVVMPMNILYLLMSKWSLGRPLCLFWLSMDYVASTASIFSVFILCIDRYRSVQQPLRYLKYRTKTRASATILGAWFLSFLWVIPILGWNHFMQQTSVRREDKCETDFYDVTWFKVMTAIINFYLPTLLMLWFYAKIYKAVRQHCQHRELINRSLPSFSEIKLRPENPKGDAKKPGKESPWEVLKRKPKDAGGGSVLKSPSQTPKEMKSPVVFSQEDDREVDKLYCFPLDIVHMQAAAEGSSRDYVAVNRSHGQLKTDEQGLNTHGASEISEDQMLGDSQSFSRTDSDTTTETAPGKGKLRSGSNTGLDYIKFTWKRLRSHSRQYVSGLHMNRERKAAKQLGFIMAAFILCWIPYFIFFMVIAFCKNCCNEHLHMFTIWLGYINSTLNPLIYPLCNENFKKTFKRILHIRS

[5] = biological target: 5-hydroxytryptamine receptor 2B, HTR2B (h) (Homo sapiens, UniProt P41595)
Chain of 5-hydroxytryptamine receptor 2B, HTR2B (h) (P41595 whole entry): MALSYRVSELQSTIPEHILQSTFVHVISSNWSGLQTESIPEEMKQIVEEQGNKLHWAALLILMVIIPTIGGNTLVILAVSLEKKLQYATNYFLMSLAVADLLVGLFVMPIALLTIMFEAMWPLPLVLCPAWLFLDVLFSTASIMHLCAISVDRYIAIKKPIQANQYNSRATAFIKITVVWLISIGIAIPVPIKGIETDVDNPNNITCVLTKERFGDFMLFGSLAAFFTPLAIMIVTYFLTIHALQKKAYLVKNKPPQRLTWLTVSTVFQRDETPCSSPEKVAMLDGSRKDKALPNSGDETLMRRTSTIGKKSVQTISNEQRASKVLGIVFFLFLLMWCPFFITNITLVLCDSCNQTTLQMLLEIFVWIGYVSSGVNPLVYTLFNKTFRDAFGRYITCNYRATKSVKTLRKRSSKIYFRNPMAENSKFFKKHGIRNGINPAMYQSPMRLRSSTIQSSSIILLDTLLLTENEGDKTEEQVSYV

[6] = biological target: T2, Alpha-2A adrenergic receptor, ADRA2A (h) (Homo sapiens, UniProt P08913); conditions: control yohimbine
T2 sequence (P08913 1-465): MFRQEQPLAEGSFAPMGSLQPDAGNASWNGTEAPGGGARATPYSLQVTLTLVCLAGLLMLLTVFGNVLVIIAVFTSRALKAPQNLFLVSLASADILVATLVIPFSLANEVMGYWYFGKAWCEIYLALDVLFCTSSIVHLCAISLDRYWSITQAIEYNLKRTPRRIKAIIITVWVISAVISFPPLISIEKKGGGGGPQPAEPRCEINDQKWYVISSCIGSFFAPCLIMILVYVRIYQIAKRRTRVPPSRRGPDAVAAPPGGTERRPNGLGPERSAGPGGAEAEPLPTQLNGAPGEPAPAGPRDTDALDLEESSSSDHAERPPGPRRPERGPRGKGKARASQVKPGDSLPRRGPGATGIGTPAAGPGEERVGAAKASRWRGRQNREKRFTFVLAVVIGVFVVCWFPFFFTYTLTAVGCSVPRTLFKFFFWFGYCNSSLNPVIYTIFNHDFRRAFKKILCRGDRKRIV

[7] = biological target: Voltage-dependent L-type Ca2+ channel (dihydropyridine site), CACNA1C (r) (Rattus norvegicus, UniProt P22002); type: binding
Chain of Voltage-dependent L-type Ca2+ channel (dihydropyridine site), CACNA1C (r) (P22002 whole entry): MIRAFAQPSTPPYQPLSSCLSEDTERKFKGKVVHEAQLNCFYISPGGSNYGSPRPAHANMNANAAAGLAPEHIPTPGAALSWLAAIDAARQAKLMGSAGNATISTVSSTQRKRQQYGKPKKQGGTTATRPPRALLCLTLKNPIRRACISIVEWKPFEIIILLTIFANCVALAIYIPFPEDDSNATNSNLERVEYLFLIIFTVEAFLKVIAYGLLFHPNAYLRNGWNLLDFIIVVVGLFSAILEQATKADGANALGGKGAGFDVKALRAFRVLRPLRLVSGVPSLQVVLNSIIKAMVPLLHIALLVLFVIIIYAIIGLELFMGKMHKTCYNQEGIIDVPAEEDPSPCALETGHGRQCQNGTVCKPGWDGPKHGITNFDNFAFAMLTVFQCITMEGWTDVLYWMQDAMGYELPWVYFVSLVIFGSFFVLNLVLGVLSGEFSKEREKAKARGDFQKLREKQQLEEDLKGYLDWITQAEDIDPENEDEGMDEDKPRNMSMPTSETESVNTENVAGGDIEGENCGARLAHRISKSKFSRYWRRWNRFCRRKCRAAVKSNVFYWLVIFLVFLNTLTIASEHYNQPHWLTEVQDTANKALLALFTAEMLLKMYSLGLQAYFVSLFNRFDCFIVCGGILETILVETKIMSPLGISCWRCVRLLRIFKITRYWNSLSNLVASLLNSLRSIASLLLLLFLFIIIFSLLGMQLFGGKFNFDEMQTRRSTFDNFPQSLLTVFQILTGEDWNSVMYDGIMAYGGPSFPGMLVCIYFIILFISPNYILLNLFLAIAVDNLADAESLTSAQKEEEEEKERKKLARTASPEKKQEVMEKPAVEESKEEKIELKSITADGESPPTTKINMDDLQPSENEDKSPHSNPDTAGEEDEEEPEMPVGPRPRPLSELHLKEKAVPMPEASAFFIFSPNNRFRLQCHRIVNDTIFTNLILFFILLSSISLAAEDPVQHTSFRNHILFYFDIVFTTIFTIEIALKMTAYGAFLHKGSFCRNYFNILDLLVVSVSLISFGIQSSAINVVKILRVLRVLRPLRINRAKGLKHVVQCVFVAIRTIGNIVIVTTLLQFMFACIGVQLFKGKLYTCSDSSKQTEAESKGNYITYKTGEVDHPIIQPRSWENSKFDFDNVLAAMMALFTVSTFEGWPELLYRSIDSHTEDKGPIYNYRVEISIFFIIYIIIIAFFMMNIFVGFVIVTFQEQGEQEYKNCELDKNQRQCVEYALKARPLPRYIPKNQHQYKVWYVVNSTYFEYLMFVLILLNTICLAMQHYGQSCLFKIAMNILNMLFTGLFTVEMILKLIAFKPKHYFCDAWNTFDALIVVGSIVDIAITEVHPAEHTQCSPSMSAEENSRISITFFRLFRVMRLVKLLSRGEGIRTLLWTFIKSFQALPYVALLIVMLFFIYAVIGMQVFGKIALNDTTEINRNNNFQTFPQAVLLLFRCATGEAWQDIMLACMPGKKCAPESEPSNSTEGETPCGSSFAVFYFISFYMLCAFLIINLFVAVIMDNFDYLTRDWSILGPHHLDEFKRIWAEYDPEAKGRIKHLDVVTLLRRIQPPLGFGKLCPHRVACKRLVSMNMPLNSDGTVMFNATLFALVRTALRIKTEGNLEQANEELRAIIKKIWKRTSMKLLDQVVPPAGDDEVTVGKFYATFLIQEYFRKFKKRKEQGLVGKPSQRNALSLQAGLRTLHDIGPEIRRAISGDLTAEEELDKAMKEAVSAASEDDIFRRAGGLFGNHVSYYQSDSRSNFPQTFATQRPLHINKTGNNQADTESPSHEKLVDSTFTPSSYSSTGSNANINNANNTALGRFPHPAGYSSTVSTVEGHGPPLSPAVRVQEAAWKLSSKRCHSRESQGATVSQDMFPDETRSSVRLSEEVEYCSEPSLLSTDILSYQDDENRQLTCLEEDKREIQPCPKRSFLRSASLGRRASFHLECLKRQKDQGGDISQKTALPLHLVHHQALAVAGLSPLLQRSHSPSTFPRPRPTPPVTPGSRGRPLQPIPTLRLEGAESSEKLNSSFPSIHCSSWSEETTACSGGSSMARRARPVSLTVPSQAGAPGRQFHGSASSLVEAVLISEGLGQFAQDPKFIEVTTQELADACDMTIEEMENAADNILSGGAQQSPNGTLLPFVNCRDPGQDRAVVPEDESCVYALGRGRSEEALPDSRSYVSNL

[8] = biological target: T3, 5-hydroxytryptamine receptor 1A, HTR1A (h) (Homo sapiens, UniProt P08908); conditions: control 8-OH-DPAT
T3 sequence (P08908 1-422): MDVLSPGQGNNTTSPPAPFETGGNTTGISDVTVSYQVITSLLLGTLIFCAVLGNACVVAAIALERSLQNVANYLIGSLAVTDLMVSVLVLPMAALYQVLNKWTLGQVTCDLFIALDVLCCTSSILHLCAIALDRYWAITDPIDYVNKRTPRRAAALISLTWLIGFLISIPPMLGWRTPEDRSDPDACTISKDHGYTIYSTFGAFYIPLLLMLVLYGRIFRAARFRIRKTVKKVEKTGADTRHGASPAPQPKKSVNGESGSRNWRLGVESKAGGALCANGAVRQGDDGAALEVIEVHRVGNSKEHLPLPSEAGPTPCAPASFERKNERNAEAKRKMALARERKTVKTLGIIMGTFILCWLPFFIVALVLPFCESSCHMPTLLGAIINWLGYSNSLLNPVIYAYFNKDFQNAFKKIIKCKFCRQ

[9] = biological target: T4, Adenosine receptor A2a, ADORA2A (h) (Homo sapiens, UniProt P29274); experiment: IPP ADORA2A binding (agonist radioligand); conditions: control NECA
T4 construct: purchased Eurofins Cerep (SafetyScreen44-based IPP panel)
T4 sequence (P29274 whole entry): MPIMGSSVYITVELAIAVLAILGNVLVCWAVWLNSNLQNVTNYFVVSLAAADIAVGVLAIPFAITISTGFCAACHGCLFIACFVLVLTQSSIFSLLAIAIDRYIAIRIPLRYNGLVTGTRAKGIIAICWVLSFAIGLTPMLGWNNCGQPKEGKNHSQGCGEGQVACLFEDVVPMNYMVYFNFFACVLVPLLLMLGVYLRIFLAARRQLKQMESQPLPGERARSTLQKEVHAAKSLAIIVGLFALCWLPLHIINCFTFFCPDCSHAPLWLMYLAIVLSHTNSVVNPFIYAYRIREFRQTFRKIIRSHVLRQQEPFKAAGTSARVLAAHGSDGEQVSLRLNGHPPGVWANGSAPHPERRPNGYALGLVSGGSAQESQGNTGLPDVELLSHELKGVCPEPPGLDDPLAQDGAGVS

[10] = biological target: T5, Peroxisome proliferator-activated receptor alpha, PPARA (h) (Homo sapiens, UniProt Q07869); experiment: IPP PPARA coactivator recruitment (agonist); type: biochemical; conditions: 10 uM, GW 7647 for control
T5 sequence (Q07869 1-468): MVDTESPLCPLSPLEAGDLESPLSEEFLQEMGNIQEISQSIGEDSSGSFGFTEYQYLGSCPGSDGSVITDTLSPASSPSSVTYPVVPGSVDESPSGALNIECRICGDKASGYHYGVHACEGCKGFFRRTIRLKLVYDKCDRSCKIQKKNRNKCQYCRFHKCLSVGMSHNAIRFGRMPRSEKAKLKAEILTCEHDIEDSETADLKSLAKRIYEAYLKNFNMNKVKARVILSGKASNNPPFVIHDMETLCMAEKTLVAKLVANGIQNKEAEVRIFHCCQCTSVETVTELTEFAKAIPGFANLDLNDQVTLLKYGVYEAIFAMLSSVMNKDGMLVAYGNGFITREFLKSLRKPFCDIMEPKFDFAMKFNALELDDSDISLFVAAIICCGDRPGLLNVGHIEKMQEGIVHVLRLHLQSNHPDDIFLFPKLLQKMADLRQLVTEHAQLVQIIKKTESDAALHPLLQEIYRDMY

[11] = biological target: T6, Thyroid hormone receptor beta, THRB (h) (Homo sapiens, UniProt P10828); experiment: IPP THRB coactivator recruitment (agonist); type: biochemical; conditions: 10 uM, T3
T6 construct: purchased Eurofins Cerep (SafetyScreen44-based IPP panel)

[12] = biological target: T5, Peroxisome proliferator-activated receptor alpha, PPARA (h); experiment: IPP PPARA coactivator recruitment (antagonist); type: biochemical; conditions: 10 uM; antagonist; ligand GW 7647
[13] = IPP screening at 10 uM, control (±)DOI

Molecule | Specific binding ([1]; IPP screening at 10 uM) [%] | IPP screening %, Specific binding ([2]; 10 uM) [%] | Specific binding ([3]; IPP screening at 10 uM) [%] | Specific binding ([4]; IPP screening at 10 uM) [%] | Specific binding [5, 13] [%] | Specific binding ([6]; IPP screening at 10 uM) [%] | Specific binding [7] [%] | Specific binding ([8]; IPP screening at 10 uM) [%] | Specific binding ([9]; IPP screening at 10 uM) [%] | IPP screening %, Coactivator recruitment [10] [%] | IPP screening %, Coactivator recruitment [11] [%] | IPP screening %, Coactivator recruitment [12] [%] | further results
CCOP(=S)(OCC)Oc1nc(Cl)c(Cl)cc1Cl [Chlorpyrifos, O,O-Diethyl O-(3,5,6-trichloropyridin-2-yl) phosphorothioate] | -1.0 | 2.5 | -6.9 | 17.6 | 82.5 | -3.7 | 47.7 | 11.6 | 15.6 | – | – | – | –
CC(C)(C)c1ccc(CCOc2ncnc3ccccc23)cc1 [Fenazaquin, 4-[2-(4-tert-Butylphenyl)ethoxy]quinazoline] | -0.1 | 46.9 | -6.4 | 37.0 | 77.1 | 5.2 | – | -11.2 | 47.1 | 1.2 | – | – | Specific binding ([7]; IPP screening at 10 uM, control nitrendipine): 19.8%
mixture of 2- and 3-tert-butyl-4-methoxyphenol [Butylated Hydroxyanisole] | 15.3 | -2.3 | -5.0 | -2.1 | 80.6 | 1.5 | -14.2 | -7.7 | 2.8 | -0.3 | 1.0 | 4.4 | –
CC1(C)O[C@@H]2[C@@H](CO[C@@]3(COS(N)(=O)=O)OC(C)(C)O[C@@H]23)O1 [Topiramate, [(3aS,5aR,8aR,8bS)-2,2,7,7-Tetramethyltetrahydro-2H,3aH,7H-bis[1,3]dioxolo[4,5-b:4',5'-d]pyran-3a-yl]methyl sulfamate (non-preferred name)] | – | – | – | – | – | – | -33.5 | – | – | – | – | – | Specific binding ([1]; IPP screening at 100 uM): -1.3%; IPP screening %, Specific binding ([2]; 100 uM): 2.3%; Specific binding ([3]; IPP screening at 100 uM): 3.3%; Specific binding ([4]; IPP screening at 100 uM): 5.8%; Specific binding ([5]; IPP screening at 100 uM; control ±)DOI): -0.4%; Specific binding ([6]; IPP screening at 100 uM): -5.6%; Specific binding ([8]; IPP screening at 100 uM): 18.5%; Specific binding ([9]; IPP screening at 100 uM): 0.9%
(4S,4aR,5S,5aR,6S,12aS)-4-(Dimethylamino)-3,5,6,10,12,12a-hexahydroxy-6-methyl-1,11-dioxo-1,4,4a,5,5a,6,11,12a-octahydrotetracene-2-carboxamide--hydrogen chloride (1/1) [Oxytetracycline hydrochloride] | -6.5 | -5.6 | -2.5 | – | 5.9 | -1.4 | -32.1 | 1.5 | 7.5 | -0.7 | -3.0 | 42.3 | –

From article PMC11879040, “Advancing systemic toxicity risk assessment: Evaluation of a NAM-based toolbox approach” (Toxicological Sciences, 2024)
